Reference: ChEMBL document CHEMBL1201862, “PubChem BioAssay data set” (2004)
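Interpolation was linear, between the two tested concentrations surrounding the appropriate level; five concentrations were tested over 48 hours in 96-well plates. Abbreviation: GI50, concentration required for 50% inhibition of growth.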 Active and inactive are the calls of the source. Rule as the data show it: active = GI50 up to about 1.1 µM and inactive = higher.

Legend:
Test in all cases: NCI anticancer screen, dose series, 48 h
OVCAR-5 = tested on: OVCAR-5
SNB-19 = tested on: SNB-19
NCI-H522 = tested on: NCI-H522
CAKI-1 = tested on: CAKI-1
CCRF-CEM = tested on: CCRF-CEM
SK-MEL-2 = tested on: SK-MEL-2
HCC 2998 = tested on: HCC 2998
KM12 = tested on: KM12
SR = tested on: SR
M14 = tested on: M14
K562 = tested on: K562
TK-10 = tested on: TK-10
UACC-62 = tested on: UACC-62
MCF7 = tested on: MCF7
MOLT-4 = tested on: MOLT-4
OVCAR-3 = tested on: OVCAR-3
SK-MEL-28 = tested on: SK-MEL-28
HOP-92 = tested on: HOP-92
UO-31 = tested on: UO-31
NCI-H460 = tested on: NCI-H460
HCT-15 = tested on: HCT-15
U-251 = tested on: U-251
HCT-116 = tested on: HCT-116
MDA-MB-231 = tested on: MDA-MB-231
RPMI-8226 = tested on: RPMI-8226
A498 = tested on: A498
IGROV-1 = tested on: IGROV-1
EKVX = tested on: EKVX
HOP-62 = tested on: HOP-62
BT-549 = tested on: BT-549
786-0 = tested on: 786-0
NCI-H226 = tested on: NCI-H226
HT-29 = tested on: HT-29
LOX IMVI = tested on: LOX IMVI
SF-295 = tested on: SF-295
SNB-75 = tested on: SNB-75
MDA-N = tested on: MDA-N
NCI/ADR-RES = tested on: NCI/ADR-RES
RXF 393 = tested on: RXF 393
MDA-MB-435 = tested on: MDA-MB-435
SF-539 = tested on: SF-539
UACC-257 = tested on: UACC-257
Hs-578T = tested on: Hs-578T
DU-145 = tested on: DU-145
SN12C = tested on: SN12C
Malme-3M = tested on: Malme-3M
SF-268 = tested on: SF-268
ACHN = tested on: ACHN
SK-MEL-5 = tested on: SK-MEL-5
OVCAR-8 = tested on: OVCAR-8
SW-620 = tested on: SW-620
NCI-H23 = tested on: NCI-H23
OVCAR-4 = tested on: OVCAR-4
COLO 205 = tested on: COLO 205
A549 = tested on: A549
PC-3 = tested on: PC-3
SK-OV-3 = tested on: SK-OV-3

`O=C1c2cc3ncsc3cc2C(=O)c2c(O)ccc(O)c21` was tested, and the GI50 (OVCAR-5) was > 100 µM (inactive), the GI50 (SNB-19) was > 100 µM (inactive) and the GI50 (NCI-H522) was > 100 µM (inactive). For the same molecule, the GI50 (CAKI-1) was > 100 µM (inactive), the GI50 (CCRF-CEM) was 98.9 µM (inactive) and the GI50 (SK-MEL-2) was > 100 µM (inactive). The GI50 (HCC 2998) was > 100 µM (inactive), the GI50 (KM12) was > 100 µM (inactive) and the GI50 (SR) was > 100 µM (inactive). The GI50 (M14) was > 100 µM (inactive), the GI50 (K562) was > 100 µM (inactive) and the GI50 (TK-10) was > 100 µM (inactive). For the same molecule, the GI50 (UACC-62) was > 100 µM (inactive), the GI50 (MCF7) was > 100 µM (inactive) and the GI50 (MOLT-4) was > 100 µM (inactive). The GI50 (OVCAR-3) was > 100 µM (inactive), the GI50 (SK-MEL-28) was > 100 µM (inactive) and the GI50 (HOP-92) was > 100 µM (inactive). For the same molecule, the GI50 (UO-31) was > 100 µM (inactive), the GI50 (NCI-H460) was > 100 µM (inactive) and the GI50 (HCT-15) was greater than 100 µM. The GI50 (U-251) was > 100 µM (inactive), the GI50 (HCT-116) was > 100 µM (inactive) and the GI50 (MDA-MB-231) was > 100 µM (inactive). For the same molecule, the GI50 (RPMI-8226) was > 100 µM (inactive), the GI50 (A498) was > 100 µM (inactive) and the GI50 (IGROV-1) was > 100 µM (inactive). The GI50 (EKVX) was > 100 µM (inactive), the GI50 (HOP-62) was > 100 µM (inactive) and the GI50 (BT-549) was > 100 µM (inactive). The GI50 (786-0) was > 100 µM (inactive), the GI50 (NCI-H226) was > 100 µM (inactive) and the GI50 (HT-29) was > 100 µM (inactive). For the same molecule, the GI50 (LOX IMVI) was > 100 µM (inactive), the GI50 (SF-295) was > 100 µM (inactive) and the GI50 (SNB-75) was > 100 µM (inactive). For the same molecule, the GI50 (MDA-N) was > 100 µM (inactive), the GI50 (NCI/ADR-RES) was > 100 µM (inactive) and the GI50 (RXF 393) was > 100 µM (inactive). The GI50 (MDA-MB-435) was > 100 µM (inactive), the GI50 (SF-539) was > 100 µM (inactive) and the GI50 (UACC-257) was > 100 µM (inactive). For the same molecule, the GI50 (Hs-578T) was > 100 µM (inactive), the GI50 (DU-145) was > 100 µM (inactive) and the GI50 (SN12C) was > 100 µM (inactive). The GI50 (Malme-3M) was > 100 µM (inactive), the GI50 (SF-268) was > 100 µM (inactive) and the GI50 (ACHN) was > 100 µM (inactive). The GI50 (SK-MEL-5) was > 100 µM (inactive), the GI50 (OVCAR-8) was > 100 µM (inactive) and the GI50 (SW-620) was > 100 µM (inactive). For the same molecule, the GI50 (NCI-H23) was > 100 µM (inactive), the GI50 (OVCAR-4) was > 100 µM (inactive) and the GI50 (COLO 205) was > 100 µM (inactive). The GI50 (A549) was > 100 µM (inactive) and the GI50 (PC-3) was > 100 µM (inactive).
For `NC(N)=NCCC(O)(P(=O)(O)O)P(=O)(O)O`, the GI50 (OVCAR-5) was > 100 µM (inactive), the GI50 (SNB-19) was > 100 µM (inactive) and the GI50 (NCI-H522) was > 100 µM (inactive). For the same molecule, the GI50 (SK-OV-3) was > 100 µM (inactive), the GI50 (CAKI-1) was > 100 µM (inactive) and the GI50 (HCC 2998) was > 100 µM (inactive). The GI50 (KM12) was > 100 µM (inactive), the GI50 (M14) was > 100 µM (inactive) and the GI50 (TK-10) was > 100 µM (inactive). The GI50 (UACC-62) was > 100 µM (inactive), the GI50 (MCF7) was > 100 µM (inactive) and the GI50 (OVCAR-3) was > 100 µM (inactive). For the same molecule, the GI50 (UO-31) was > 100 µM (inactive), the GI50 (NCI-H460) was > 100 µM (inactive) and the GI50 (HCT-15) was greater than 100 µM. The GI50 (HCT-116) was > 100 µM (inactive), the GI50 (MDA-MB-231) was > 100 µM (inactive) and the GI50 (IGROV-1) was > 100 µM (inactive). For the same molecule, the GI50 (EKVX) was > 100 µM (inactive), the GI50 (HOP-62) was > 100 µM (inactive) and the GI50 (BT-549) was > 100 µM (inactive). The GI50 (786-0) was 46.9 µM (inactive), the GI50 (NCI-H226) was > 100 µM (inactive) and the GI50 (LOX IMVI) was > 100 µM (inactive). The GI50 (SF-295) was > 100 µM (inactive), the GI50 (MDA-N) was > 100 µM (inactive) and the GI50 (NCI/ADR-RES) was > 100 µM (inactive). For the same molecule, the GI50 (RXF 393) was > 100 µM (inactive), the GI50 (SF-539) was > 100 µM (inactive) and the GI50 (UACC-257) was > 100 µM (inactive). For the same molecule, the GI50 (Hs-578T) was 15 µM (inactive), the GI50 (DU-145) was > 100 µM (inactive) and the GI50 (Malme-3M) was > 100 µM (inactive). The GI50 (SF-268) was > 100 µM (inactive), the GI50 (ACHN) was > 100 µM (inactive) and the GI50 (SK-MEL-5) was > 100 µM (inactive). For the same molecule, the GI50 (NCI-H23) was > 100 µM (inactive), the GI50 (COLO 205) was > 100 µM (inactive) and the GI50 (A549) was > 100 µM (inactive). The GI50 (PC-3) was > 100 µM (inactive).
